Data: patent US10125138B2, “Triazolotriazinone derivatives having activity a s herbicides” (Syngenta Participations AG, priority 2015, dated 2018)

Columns and labels:
Format in all cases: in vivo
Conditions in all cases: 1000 g/h, evaluated after 13 days, five point scale
Setaria faberi (SETFA) [1] = assay: Post-emergence glasshouse herbicide test, Setaria faberi
Procedure: (§1) Seeds of a variety of test species are sown in standard soil in pots (Lolium perenne (LOLPE), Solanum nigrum (SOLNI), Amaranthus retoflexus (AMARE), Setaria faberi (SETFA), Echinochloa crus-galli (ECHCG), Ipomoea hederacea (IPOHE)). After cultivation for one day (pre-emergence) or after 8 days cultivation (post-emergence) under controlled conditions in a glasshouse (at 24/16° C., day/night; 14 hours light; 65% humidity), the plants are sprayed with an aqueous spray solution derived from the formulation of the technical active ingredient in acetone/water (50:50) solution containing 0.5% Tween 20 (polyoxyethelyene sorbitan monolaurate, CAS RN 9005-64-5). […] The test plants are then grown in a glasshouse under controlled conditions in a glasshouse (at 24/16° C., day/night; 14 hours light; 65% humidity) and watered twice daily. After 13 days for pre and post-emergence, the test is evaluated for the percentage damage caused to the plant. The biological activities are shown in the following table on a five point scale (5=80-100%; 4=60-79%; 3=40-59%; 2=20-39%; 1=0-19%).

[2] = test system: Echinochloa crus-galli (ECHCG); assay: Pre-emergence glasshouse herbicide test, Echinochloa crus-galli
Procedure: as §1

[3] = test system: Amaranthus retoflexus (AMARE); assay: Post-emergence glasshouse herbicide test, Amaranthus retoflexus
Procedure: as §1

Lolium perenne (LOLPE) [4] = assay: Pre-emergence glasshouse herbicide test, Lolium perenne
Procedure: as §1

Solanum nigrum (SOLNI) [5] = assay: Post-emergence glasshouse herbicide test, Solanum nigrum
Procedure: (§2) Seeds of a variety of test species are sown in standard soil in pots (Lolium perenne (LOLPE), Solanum nigrum (SOLNI), Amaranthus retoflexus (AMARE), Setaria faberi (SETFA), Echinochloa crus-galli (ECHCG), Ipomoea hederacea (IPOHE)). After cultivation for one day (pre-emergence) or after 8 days cultivation (post-emergence) under controlled conditions in a glasshouse (at 24/16° C., day/night; 14 hours light; 65% humidity), the plants are sprayed with an aqueous spray solution derived from the formulation of the technical active ingredient in acetone/water (50:50) solution containing 0.5% Tween 20 (polyoxyethelyene sorbitan monolaurate, CAS RN 9005-64-5). Compounds are applied at 1000 g/h. The test plants are then grown in a glasshouse under controlled conditions in a glasshouse (at 24/16° C., day/night; 14 hours light; 65% humidity) and watered twice daily. After 13 days for pre and post-emergence, the test is evaluated for the percentage damage caused to the plant. The biological activities are shown in the following table on a five point scale (5=80-100%; 4=60-79%; 3=40-59%; 2=20-39%; 1=0-19%).

Solanum nigrum (SOLNI) [6] = assay: Pre-emergence glasshouse herbicide test, Solanum nigrum
Procedure: as §2

[7] = test system: Echinochloa crus-galli (ECHCG); assay: Post-emergence glasshouse herbicide test, Echinochloa crus-galli
Procedure: as §1

[8] = test system: Amaranthus retoflexus (AMARE); assay: Pre-emergence glasshouse herbicide test, Amaranthus retoflexus
Procedure: as §1

Setaria faberi (SETFA) [9] = assay: Pre-emergence glasshouse herbicide test, Setaria faberi
Procedure: as §1

[10] = test system: Ipomoea hederacea (IPOHE); assay: Pre-emergence glasshouse herbicide test, Ipomoea hederacea
Procedure: as §1

Lolium perenne (LOLPE) [11] = assay: Post-emergence glasshouse herbicide test, Lolium perenne
Procedure: as §1

[12] = test system: Ipomoea hederacea (IPOHE); assay: Post-emergence glasshouse herbicide test, Ipomoea hederacea
Procedure: as §1

## CCCn1nnnc1NC(=O)c1nn2cnn(-c3ccc(C(F)(F)F)cc3)c2nc1=O [Compound 1.043]
Setaria faberi (SETFA) [1]
  percentage damage caused to the plant, POST Application SETFA: 4 (4=60-79%)
[2]
  percentage damage caused to the plant, PRE Application ECHCG: 2 (2=20-39%)
[3]
  percentage damage caused to the plant, POST Application AMARE: 5 (5=80-100%)
Lolium perenne (LOLPE) [4]
  percentage damage caused to the plant, PRE Application LOLPE: 3 (3=40-59%)
Solanum nigrum (SOLNI) [5]
  percentage damage caused to the plant, POST Application SOLNI: 5 (5=80-100%)
Solanum nigrum (SOLNI) [6]
  percentage damage caused to the plant, PRE Application SOLNI: 5 (5=80-100%)
[7]
  percentage damage caused to the plant, POST Application ECHCG: 1 (1=0-19%)
[8]
  percentage damage caused to the plant, PRE Application AMARE: 4 (4=60-79%)
Setaria faberi (SETFA) [9]
  percentage damage caused to the plant, PRE Application SETFA: 5 (5=80-100%)
[10]
  percentage damage caused to the plant, PRE Application IPOHE: 3 (3=40-59%)
Lolium perenne (LOLPE) [11]
  percentage damage caused to the plant, POST Application LOLPE: 3 (3=40-59%)
[12]
  percentage damage caused to the plant, POST Application IPOHE: 4 (4=60-79%)

## O=C(Nc1nnnn1-c1ccccc1)c1nn2cnn(-c3ccccc3)c2nc1=O [Compound 1.027]
Setaria faberi (SETFA) [1]
  percentage damage caused to the plant, POST Application SETFA: 2 (2=20-39%)
[2]
  percentage damage caused to the plant, PRE Application ECHCG: 1 (1=0-19%)
[3]
  percentage damage caused to the plant, POST Application AMARE: 4 (4=60-79%)
Lolium perenne (LOLPE) [4]
  percentage damage caused to the plant, PRE Application LOLPE: 1 (1=0-19%)
Solanum nigrum (SOLNI) [5]
  percentage damage caused to the plant, POST Application SOLNI: 5 (5=80-100%)
Solanum nigrum (SOLNI) [6]
  percentage damage caused to the plant, PRE Application SOLNI: 5 (5=80-100%)
[7]
  percentage damage caused to the plant, POST Application ECHCG: 1 (1=0-19%)
[8]
  percentage damage caused to the plant, PRE Application AMARE: 5 (5=80-100%)
Setaria faberi (SETFA) [9]
  percentage damage caused to the plant, PRE Application SETFA: 2 (2=20-39%)
[10]
  percentage damage caused to the plant, PRE Application IPOHE: 4 (4=60-79%)
Lolium perenne (LOLPE) [11]
  percentage damage caused to the plant, POST Application LOLPE: 2 (2=20-39%)
[12]
  percentage damage caused to the plant, POST Application IPOHE: 3 (3=40-59%)

## CCCn1nnnc1NC(=O)c1nn2cnn(-c3cccc(OC)c3)c2nc1=O [Compound 1.036]
Setaria faberi (SETFA) [1]
  percentage damage caused to the plant, POST Application SETFA: 5 (5=80-100%)
[2]
  percentage damage caused to the plant, PRE Application ECHCG: 5 (5=80-100%)
[3]
  percentage damage caused to the plant, POST Application AMARE: 5 (5=80-100%)
Lolium perenne (LOLPE) [4]
  percentage damage caused to the plant, PRE Application LOLPE: 5 (5=80-100%)
Solanum nigrum (SOLNI) [5]
  percentage damage caused to the plant, POST Application SOLNI: 5 (5=80-100%)
Solanum nigrum (SOLNI) [6]
  percentage damage caused to the plant, PRE Application SOLNI: 5 (5=80-100%)
[7]
  percentage damage caused to the plant, POST Application ECHCG: 4 (4=60-79%)
[8]
  percentage damage caused to the plant, PRE Application AMARE: 5 (5=80-100%)
Setaria faberi (SETFA) [9]
  percentage damage caused to the plant, PRE Application SETFA: 5 (5=80-100%)
[10]
  percentage damage caused to the plant, PRE Application IPOHE: 4 (4=60-79%)
Lolium perenne (LOLPE) [11]
  percentage damage caused to the plant, POST Application LOLPE: 5 (5=80-100%)
[12]
  percentage damage caused to the plant, POST Application IPOHE: 5 (5=80-100%)

## CCCn1nnnc1NC(=O)c1nn2cnn(CCC)c2nc1=O [Compound 1.031]
Setaria faberi (SETFA) [1]
  percentage damage caused to the plant, POST Application SETFA: 5 (5=80-100%)
[2]
  percentage damage caused to the plant, PRE Application ECHCG: 5 (5=80-100%)
[3]
  percentage damage caused to the plant, POST Application AMARE: 5 (5=80-100%)
Lolium perenne (LOLPE) [4]
  percentage damage caused to the plant, PRE Application LOLPE: 5 (5=80-100%)
Solanum nigrum (SOLNI) [5]
  percentage damage caused to the plant, POST Application SOLNI: 5 (5=80-100%)
Solanum nigrum (SOLNI) [6]
  percentage damage caused to the plant, PRE Application SOLNI: 5 (5=80-100%)
[7]
  percentage damage caused to the plant, POST Application ECHCG: 5 (5=80-100%)
[8]
  percentage damage caused to the plant, PRE Application AMARE: 5 (5=80-100%)
Setaria faberi (SETFA) [9]
  percentage damage caused to the plant, PRE Application SETFA: 4 (4=60-79%)
[10]
  percentage damage caused to the plant, PRE Application IPOHE: 5 (5=80-100%)
Lolium perenne (LOLPE) [11]
  percentage damage caused to the plant, POST Application LOLPE: 5 (5=80-100%)
[12]
  percentage damage caused to the plant, POST Application IPOHE: 5 (5=80-100%)
